The term Cmax denotes the highest concentration seen after dosing.

In US11033629B2, “Oral formulations of kappa opioid receptor agonists” (Cara Therapeutics, Inc., priority 2018, dated 2021) one finds Cmax data, which are given here for one compound.

SMILES strings stand for the structures.

The nature of this data set: Intravenous delivery of CR845 to canines (composite IV data from five studies, reference for bioavailability). To be noted: dog, in vivo, average dose 0.029±0.029 mg/kg, ten kilogram dogs, thirty-six canines. Here is the method:
Each capsule of prototype formulation 1 contained: 1.6 mg spray dried CR845 in 90% Miglyol 812, 10% sodium caprate. Each capsule of prototype formulation 2 contained: 1.6 mg crystallized CR845 in 90% Miglyol 812, 10% sodium caprate. Each capsule of prototype formulation 3 contained: 1.6 mg spray dried CR845 in 90% Miglyol 812, 10% capric acid. Each capsule of prototype formulation 4 contained: 1.6 mg spray dried CR845 in 70% Miglyol 812 in 30% capric acid. Bioavailability (% f) is expressed as a percent of CR845 observed (calculated from the area under the curve: AUC) as compared with the total CR845 AUC observed after intravenous delivery of the same dose. Composite IV data from five separate studies with thirty-six canines was averaged and used for bioavailability calculations. […] The observed avg.

Take `CC(C)C[C@@H](NC(=O)[C@@H](Cc1ccccc1)NC(=O)[C@H](N)Cc1ccccc1)C(=O)N[C@H](CCCCN)C(=O)N1CCC(N)(C(=O)O)CC1` [CR845, D-Phe-D-Phe-D-Leu-D-Lys-[ω(4-aminopiperidine-4-carboxylic acid)]-OH]: the Cmax amounted to 163 ± 39.2 ng/mL.
